This note sets out measurements from patent US20140221427A1, “ISOTOPOLOGUES OF POMALIDOMIDE” (CELGENE CORPORATION, priority 2011, published 2014).

One test deals with TNFα. In words: Inhibition of TNFα in LPS-stimulated hPBMC (ELISA). It is filed as cell-based. Conditions: LPS-stimulated human PBMC, TNFα by ELISA; read-out: IC50s for TNFα. The method, then:
Human peripheral blood mononuclear cells (hPBMC) from normal donors are obtained by Ficoll Hypaque (Pharmacia, Piscataway, N.J., USA) density centrifugation. Cells are cultured in RPMI 1640 (Life Technologies, Grand Island, N.Y., USA) supplemented with 10% AB+human serum (Gemini Bio-products, Woodland, Calif., USA), 2 mM L-glutamine, 100 U/ml penicillin, and 100 μg/ml streptomycin (Life Technologies).
PBMC (2×10^5 cells) are plated in 96-well flat-bottom Costar tissue culture plates (Corning, N.Y., USA) in triplicate. Cells are stimulated with LPS (from Salmonella abortus equi, Sigma cat. no. L-1887, St. Louis, Mo., USA) at 1 ng/ml final in the absence or presence of compounds. Compounds provided herein are dissolved in DMSO (Sigma) and further dilutions are done in culture medium immediately before use. The final DMSO concentration in all assays can be about 0.25%. Compounds are added to cells 1 hour before LPS stimulation. Cells are then incubated for 18-20 hours at 37° C. in 5% CO2, and supernatants are then collected, diluted with culture medium and assayed for TNFα levels by ELISA (Endogen, Boston, Mass., USA). IC50s are calculated using non-linear regression, sigmoidal dose-response, constraining the top to 100% and bottom to 0%, allowing variable slope (GraphPad Prism v3.02).
Potencies of racemic, (R)-, and (S)-pomalidomide in inhibiting TNFα were measured using procedures substantially similar to those described in Section 5.4 above.

Another test relates to IL-2. In words: Production of IL-2 in anti-CD3-stimulated purified T cells (ELISA). The test is classed as cell-based, human. To be noted: T cells from PBMC on anti-CD3 (OKT3) coated plates, IL-2 by ELISA, read-out: EC50s for IL-2. The method, then:
PBMC are depleted of adherent monocytes by placing 1×10^8 PBMC in 10 ml complete medium (RPMI 1640 supplemented with 10% heat-inactivated fetal bovine serum, 2 mM L-glutamine, 100 U/ml penicillin, and 100 μg/ml streptomycin) per 10 cm tissue culture dish, in 37° C., 5% CO2 incubator for 30-60 minutes. The dish is rinsed with medium to remove all non-adherent PBMC. T cells are purified by negative selection using the following antibody (Pharmingen) and Dynabead (Dynal) mixture for every 1×10^8 non-adherent PBMC: 0.3 ml Sheep anti-mouse IgG beads, 15 μl anti-CD16, 15 μl anti-CD33, 15 μl anti-CD56, 0.23 ml anti-CD19 beads, 0.23 ml anti-HLA class II beads, and 56 μl anti-CD14 beads. The cells and bead/antibody mixture is rotated end-over-end for 30-60 minutes at 4° C. Purified T cells are removed from beads using a Dynal magnet. Typical yield is about 50% T cells, 87-95% CD3′ by flow cytometry.
Tissue culture 96-well flat-bottom plates are coated with anti-CD3 antibody OKT3 at 5 μg/ml in PBS, 100 μl per well, incubated at 37° C. for 3-6 hours, then washed four times with complete medium 100 μl/well just before T cells are added. Compounds are diluted to 20 times of final in a round bottom tissue culture 96-well plate. Final concentrations are about 10 μM to about 0.00064 μM. A 10 mM stock of compounds provided herein is diluted 1:50 in complete for the first 20× dilution of 200 μM in 2% DMSO and serially diluted 1:5 into 2% DMSO. Compound is added at 10 μl per 200 μl culture, to give a final DMSO concentration of 0.1%. Cultures are incubated at 37° C., 5% CO2 for 2-3 days, and supernatants analyzed for IL-2 by ELISA (R&D Systems). […]
In addition, potencies of racemic, (R)-, and (S)-pomalidomide in promoting the production of IL-2 were measured using procedures substantially similar to those described in Section 5.5 above.

Like-named read-outs stand apart in the source and are kept apart here.

Take `Nc1cccc2c1C(=O)N(C1CCC(=O)NC1=O)C2=O` (racemic) [racemic pomalidomide, 4-amino-2-(2,6-dixopiperidin-3-yl)isoindoline-1,3-dione]: the IC50 in the test on TNFα is 13 nM. Also, the EC50 in the test on IL-2 (Homo sapiens, T-cell) worked out at 10.3 nM.

For `Nc1cccc2c1C(=O)N([C@@H]1CCC(=O)NC1=O)C2=O` [(R)-pomalidomide], in the test on TNFα, the IC50 worked out at 93.3 nM. Also, the EC50 in the test on IL-2 is 57.2 nM.

For `Nc1cccc2c1C(=O)N([C@H]1CCC(=O)NC1=O)C2=O` [(S)-pomalidomide], in the test with TNFα, the IC50 is 3.9 nM. Besides, the EC50 with IL-2 is 12.4 nM.
